Results on ten compounds are retold here after ChEMBL document CHEMBL1201862, “PubChem BioAssay data set” (2004).

Molecules are shown by their SMILES.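 Five concentrations, 48 hours, 96-well plates. Here, GI50 denotes the concentration required for 50% inhibition of growth.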 Calls of active or inactive are those of the source. Cut-off read from the data, not from the text of the source: active = GI50 up to about 1.1 µM and inactive = higher. A value given as a limit tells only on which side of the number the result lay.

For orientation: GI50 means the concentration giving 50% growth inhibition.

Some test systems named below: M14; OVCAR-3; NCI-H522; KM12; RPMI-8226; 786-0; NCI-H460; SF-539; BT-549; Hs-578T; EKVX; HT-29; A549; HCT-15; PC-3; HCT-116; T47D; HCC 2998; MDA-N; UO-31.
What all share (assay): DTP human tumour cell line panel, 48 h

Take `COc1cc2c(cc1OC(=O)c1cc3ccccc3[nH]1)N=C[C@@H]1CCCN1C2=O`: the GI50 in the experiment with M14 was 0.18 µM (active); in the experiment with OVCAR-3, 0.296 µM (active); with NCI-H522, 0.157 µM (active); in the experiment on KM12, 0.433 µM (active); with RPMI-8226, 0.334 µM (active); in the experiment with 786-0 it was 0.261 µM (active). Moreover, the 50% growth inhibitory concentration (GI50) in the experiment on NCI-H460 is 0.344 µM (active); with SF-539 it was 0.281 µM (active); in the experiment with BT-549, 0.638 µM (active); with Hs-578T, 1.3 µM (inactive); with EKVX, 0.841 µM (active); with HT-29 it was 0.185 µM (active). Also, the GI50 in the experiment on A549 is 0.662 µM (active); in the experiment on HCT-15, 0.475 µM; in the experiment on PC-3, 0.585 µM (active); in the experiment on HCT-116, 0.41 µM (active); in the experiment on T47D, 0.851 µM (active); with HCC 2998 it was 0.269 µM (active). The 50% growth inhibitory concentration (GI50) with MDA-N is 0.194 µM (active); in the experiment with UO-31 it was 0.129 µM (active).
As for `C=CCNC(=S)N/C=C(/C(C)=O)C(=O)Nc1ccccc1C`, the GI50 is > 100 µM (inactive) with M14; > 100 µM (inactive) with OVCAR-3; > 100 µM (inactive) in the experiment with NCI-H522; > 100 µM (inactive) in the experiment on KM12; 4.76 µM (inactive) with RPMI-8226; > 100 µM (inactive) in the experiment with 786-0. Also, the GI50 with NCI-H460, with SF-539, in the experiment on BT-549, in the experiment with Hs-578T, in the experiment on EKVX and with HT-29 was > 100 µM (inactive) throughout. Moreover, the GI50 with A549 is > 100 µM (inactive); in the experiment on HCT-15, greater than 100 µM; with PC-3 it was > 100 µM (inactive); with HCT-116, > 100 µM (inactive); with T47D, > 100 µM (inactive); in the experiment with HCC 2998, > 100 µM (inactive). Also, the GI50 in the experiment on MDA-N and in the experiment on UO-31 was > 100 µM (inactive) each time.
Regarding `COc1cccc2cc(C(=O)NC34CC5CC(CC(C5)C3)C4)c(=N)oc12`, the GI50 with M14 is > 100 µM (inactive); in the experiment with OVCAR-3, 24.6 µM (inactive); in the experiment on NCI-H522, 23.4 µM (inactive); with KM12, 54.6 µM (inactive); with RPMI-8226, 25.6 µM (inactive); in the experiment on 786-0, 59.8 µM (inactive). For the same compound, the GI50 in the experiment with NCI-H460 is > 89.7 µM (inactive); in the experiment with SF-539 it was > 34.3 µM (inactive); in the experiment on BT-549 it was > 80.7 µM (inactive); in the experiment with Hs-578T it was 34 µM (inactive); in the experiment with EKVX it was > 61.8 µM (inactive); with HT-29, 47.1 µM (inactive). Besides, the GI50 in the experiment on A549 was 64.7 µM (inactive); in the experiment with HCT-15, 49.8 µM; with PC-3 it was 56.6 µM (inactive); with HCT-116 it was 52.1 µM (inactive); in the experiment with T47D it was 18.2 µM (inactive); in the experiment on HCC 2998, > 54.2 µM (inactive). The figures for the GI50 in the experiment with MDA-N and in the experiment with UO-31 were > 100 µM (inactive) and 2.67 µM (inactive), respectively.
Consider `O=C1Oc2ccccc2C(=O)/C1=C/NC(=S)NCCc1ccccc1`, for which the GI50 with M14 is 55 µM (inactive); in the experiment with OVCAR-3, 67.1 µM (inactive); in the experiment on NCI-H522 it was 23.3 µM (inactive); in the experiment with KM12 it was 37.2 µM (inactive); in the experiment with RPMI-8226 it was 35.2 µM (inactive); in the experiment on 786-0 it was 38.7 µM (inactive). Moreover, the GI50 in the experiment with NCI-H460 was 23.8 µM (inactive); with SF-539, 31.2 µM (inactive); in the experiment on BT-549, 20.2 µM (inactive); in the experiment with Hs-578T it was 36.6 µM (inactive); in the experiment on EKVX, 63.7 µM (inactive); in the experiment with HT-29, 68.1 µM (inactive). In addition, the GI50 was 49 µM (inactive) in the experiment on A549; 34.6 µM with HCT-15; 39.8 µM (inactive) in the experiment with PC-3; 33.3 µM (inactive) in the experiment on HCT-116; 35.1 µM (inactive) with T47D; 43.2 µM (inactive) in the experiment on HCC 2998. Moreover, the GI50 is 32.8 µM (inactive) in the experiment with MDA-N and 17.1 µM (inactive) with UO-31.
On to `COC(=O)C1C(OC(=O)c2ccccc2)CC2CCC1N2C(N)=O` (stereo not given), for which the GI50 in the experiment on M14, in the experiment on OVCAR-3, in the experiment on NCI-H522, in the experiment with KM12, in the experiment on RPMI-8226 and in the experiment with 786-0 was > 100 µM (inactive) in each case. Besides, the GI50 with NCI-H460, in the experiment on SF-539, with BT-549, in the experiment with Hs-578T, with EKVX and with HT-29 was > 100 µM (inactive) each time. The GI50 was > 100 µM (inactive) in the experiment on A549; greater than 100 µM in the experiment on HCT-15; > 100 µM (inactive) with PC-3; > 100 µM (inactive) in the experiment with HCT-116; > 100 µM (inactive) in the experiment with T47D; > 100 µM (inactive) in the experiment with HCC 2998. Further, the GI50 with MDA-N and with UO-31 was > 100 µM (inactive) each time.
Turning to `O=C(O)c1ccc(C2=Nc3cccc4cccc(c34)N2)cc1`, the GI50 in the experiment with M14 was > 100 µM (inactive); with OVCAR-3, > 100 µM (inactive); with NCI-H522 it was 82.6 µM (inactive); with KM12 it was > 100 µM (inactive); in the experiment on RPMI-8226, > 100 µM (inactive); with 786-0, > 100 µM (inactive). Besides, the GI50 with NCI-H460, in the experiment with SF-539, in the experiment with BT-549, in the experiment with Hs-578T, in the experiment on EKVX and with HT-29 was > 100 µM (inactive) each time. Besides, the GI50 was > 100 µM (inactive) in the experiment on A549; greater than 100 µM in the experiment with HCT-15; > 100 µM (inactive) in the experiment on PC-3; > 100 µM (inactive) in the experiment with HCT-116; 57.9 µM (inactive) in the experiment on T47D; > 100 µM (inactive) in the experiment on HCC 2998. Moreover, the GI50 in the experiment with MDA-N and in the experiment with UO-31 was > 100 µM (inactive) each time.
Consider `Cc1cc2nc(CC(C(F)(F)F)C(F)(F)F)oc2cc1C`, for which the GI50 is 1.07 µM (active) in the experiment on M14; 2.65 µM (inactive) in the experiment with OVCAR-3; 0.184 µM (active) in the experiment with NCI-H522; 3 µM (inactive) in the experiment on KM12; 0.0931 µM (active) in the experiment with RPMI-8226; 0.474 µM (active) in the experiment on 786-0. The GI50 is 3.77 µM (inactive) with NCI-H460; 2.73 µM (inactive) with SF-539; 0.452 µM (active) in the experiment with BT-549; 1.83 µM (inactive) in the experiment on Hs-578T; 2.24 µM (inactive) in the experiment on EKVX; 0.973 µM (active) in the experiment with HT-29. The GI50 with A549 is 5.79 µM (inactive); with HCT-15, 3.47 µM; in the experiment with PC-3, 1.96 µM (inactive); in the experiment with HCT-116 it was 1 µM (active); in the experiment on T47D it was 0.308 µM (active); with HCC 2998, 3.56 µM (inactive). For the same compound, the GI50 with MDA-N is 1.91 µM (inactive); in the experiment with UO-31 it was 7.69 µM (inactive).
As to `O=C1N[C@@H]2c3c(csc3Br)C(=O)[C@@H]2O1`, the GI50 with M14 is 37.3 µM (inactive); in the experiment on OVCAR-3 it was 20.7 µM (inactive); in the experiment on NCI-H522, 30.1 µM (inactive); in the experiment with KM12, 47 µM (inactive); in the experiment with RPMI-8226, 26.9 µM (inactive); with 786-0, 33.2 µM (inactive). For the same compound, the GI50 with NCI-H460 is 43.4 µM (inactive); in the experiment with SF-539, 33.5 µM (inactive); in the experiment with BT-549, 38.5 µM (inactive); in the experiment on Hs-578T, 31 µM (inactive); with EKVX it was 30.4 µM (inactive); with HT-29, 38.5 µM (inactive). In addition, the GI50 in the experiment with A549 was 51.9 µM (inactive); in the experiment with HCT-15 it was 31.5 µM; with PC-3, 41.6 µM (inactive); in the experiment with HCT-116, 27.8 µM (inactive); in the experiment with T47D it was 28.8 µM (inactive); with HCC 2998, 17.9 µM (inactive). The values for the GI50 in the experiment with MDA-N and in the experiment with UO-31 were 25.1 µM (inactive) and 20.9 µM (inactive), respectively.
On to `Cc1ccc(C(=O)O)c(CC2Cc3c(C)cccc3C2=O)c1` (stereo not given), for which the GI50 with M14, in the experiment with OVCAR-3, in the experiment with NCI-H522, with KM12, with RPMI-8226 and in the experiment with 786-0 was > 100 µM (inactive) in each case. The GI50 in the experiment with NCI-H460, in the experiment on SF-539, in the experiment with BT-549, with Hs-578T, with EKVX and with HT-29 was > 100 µM (inactive) in each case. Moreover, the GI50 in the experiment on A549 was > 100 µM (inactive); in the experiment on HCT-15, greater than 100 µM; with PC-3, > 100 µM (inactive); in the experiment on HCT-116 it was > 100 µM (inactive); with T47D, > 100 µM (inactive); in the experiment on HCC 2998, > 100 µM (inactive). In addition, the GI50 with MDA-N and in the experiment on UO-31 was > 100 µM (inactive) throughout.
Take `CCN(CC)C1Oc2cc3c(cc2C(c2cccc(OC)c2O)C1C)OCO3` (stereo not given): the GI50 was 2.98 µM (inactive) with M14; 1.94 µM (inactive) in the experiment on OVCAR-3; 2.41 µM (inactive) with NCI-H522; 4.1 µM (inactive) with KM12; 3.24 µM (inactive) in the experiment on RPMI-8226; 9.79 µM (inactive) in the experiment with 786-0. The GI50 in the experiment on NCI-H460 was 4.24 µM (inactive); with SF-539, 2.54 µM (inactive); with BT-549, 7.18 µM (inactive); with Hs-578T, 2.51 µM (inactive); in the experiment on EKVX, 10.6 µM (inactive); with HT-29, 4.16 µM (inactive). In addition, the GI50 is 5.02 µM (inactive) in the experiment on A549; 4.79 µM in the experiment on HCT-15; 3.63 µM (inactive) in the experiment with PC-3; 4.28 µM (inactive) in the experiment on HCT-116; 14.5 µM (inactive) in the experiment on T47D; 12.4 µM (inactive) in the experiment with HCC 2998. The GI50 is 1.7 µM (inactive) in the experiment on MDA-N and 9.38 µM (inactive) with UO-31.
